Patent US5502035A, “N-terminus modified analogs of LHRH” (Tap Holdings Inc., priority 1994, dated 1996)
Non-standard residues stand in square brackets, D forms with d. Residues, ends and D or L forms follow the SMILES beside them. *: point of attachment. Shikimoyl = O=C(C1=C[C@@H](O)[C@@H](O)[C@H](O)C1)*; dPhe(4-Cl) = N[C@H](Cc1ccc(Cl)cc1)C(=O)O; d2Nal = N[C@H](Cc1ccc2ccccc2c1)C(=O)O; d(hCit) = NC(=O)NCCCC[C@@H](N)C(=O)O; Acetyl(3-pyridyl) = O=C(Cc1cccnc1)*; Lys(iPr) = CC(C)NCCCC[C@H](N)C(=O)O; NMeY = CN[C@@H](Cc1ccc(O)cc1)C(=O)O; dCit = NC(=O)NCCC[C@@H](N)C(=O)O; hArg = N=C(N)NCCCC[C@H](N)C(=O)O; d3Pal = N[C@H](Cc1cccnc1)C(=O)O; Nicotinoyl = O=C(c1cccnc1)*; X1 = O=C([C@@H]1CCCO1)*

Target: T1, LHRH (Rattus norvegicus, UniProt P30969)
T1 construct: endogenous in cells; host or cells: rat pituitary cells (own knowledge of the cited Haviv 1989 method)
T1 sequence (P30969 1-327): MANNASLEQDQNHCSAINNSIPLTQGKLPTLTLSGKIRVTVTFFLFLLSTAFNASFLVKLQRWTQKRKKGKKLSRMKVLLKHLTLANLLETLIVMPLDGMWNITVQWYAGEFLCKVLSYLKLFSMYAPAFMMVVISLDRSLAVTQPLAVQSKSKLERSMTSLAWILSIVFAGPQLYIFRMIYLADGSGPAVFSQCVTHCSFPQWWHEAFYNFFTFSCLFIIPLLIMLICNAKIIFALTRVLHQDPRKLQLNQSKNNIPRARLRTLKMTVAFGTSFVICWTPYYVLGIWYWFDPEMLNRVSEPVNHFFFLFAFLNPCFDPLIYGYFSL
Test: in vitro test for LHRH antagonist potency (pA2)
Assay type: cell-based
Conditions: negative logarithm of the antagonist concentration required to shift the response curve produced by the agonist leuprolide to two-fold higher concentration
Method in brief: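 Rat LHRH receptor in vitro functional test; pA2 = negative log of the antagonist concentration shifting the leuprolide agonist response curve to two-fold higher concentration.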

**Q.** For `CC(C)C[C@H](NC(=O)[C@@H](CCCNC(N)=O)NC(=O)[C@H](Cc1ccc(O)cc1)N(C)C(=O)[C@H](CO)NC(=O)[C@@H](Cc1cccnc1)NC(=O)[C@@H](Cc1ccc(Cl)cc1)NC(=O)[C@@H](Cc1ccc2ccccc2c1)NC(=O)Cc1cccnc1)C(=O)N[C@@H](CCCNC(=N)N)C(=O)N1CCC[C@H]1C(=O)N[C@H](C)C(N)=O` [Example 78h, N-(3-Pyridylacetyl)-D2Nal-D4ClPhe-D3Pal-Ser-NMeTyr-DCit-Leu-Arg-Pro-DAlaNH2] ({Acetyl(3-pyridyl)}-[d2Nal][dPhe(4-Cl)][d3Pal]S[NMeY][dCit]LRP[dA]-NH2), which Kb is on record?
**A.** The Kb was 0.0316 nM.

**Q.** With `CC(C)C[C@H](NC(=O)[C@@H](CCCCNC(=O)C1=C[C@@H](O)[C@@H](O)[C@H](O)C1)NC(=O)[C@H](Cc1ccc(O)cc1)N(C)C(=O)[C@H](CO)NC(=O)[C@@H](Cc1cccnc1)NC(=O)[C@@H](Cc1ccc(Cl)cc1)NC(=O)[C@@H](Cc1ccc2ccccc2c1)NC(=O)C1=C[C@@H](O)[C@@H](O)[C@H](O)C1)C(=O)N[C@@H](CCCCNC(=N)N)C(=O)N1CCC[C@H]1C(=O)N[C@H](C)C(N)=O` [Example 79, N-Shikimyl-D2Nal-D4ClPhe-D3Pal-Ser-NMeTyr-DLys(Shik)-Leu-Harg-Pro-DAlaNH2] (Shikimoyl-[d2Nal][dPhe(4-Cl)][d3Pal]S[NMeY][dK](Shikimoyl)L[hArg]P[dA]-NH2) as the compound, how does the Kb read?
**A.** The Kb was 0.0195 nM.

**Q.** How did the Kb turn out when `CC(C)C[C@H](NC(=O)[C@@H](CCCCNC(=O)c1cccnc1)NC(=O)[C@H](Cc1ccc(O)cc1)N(C)C(=O)[C@H](CO)NC(=O)[C@@H](Cc1cccnc1)NC(=O)[C@@H](Cc1ccc(Cl)cc1)NC(=O)[C@@H](Cc1ccc2ccccc2c1)NC(=O)CNC(=O)[C@@H]1CCCO1)C(=O)N[C@@H](CCCCNC(C)C)C(=O)N1CCC[C@H]1C(=O)N[C@@H](C)C(N)=O` [Example 80, N-(S)-2-Tetrahydrofuroyl-Gly-D2Nal-D4ClPhe-D3Pal-Ser-NMeTyr-DLys(N-epsilon- Nicotinyl) -Leu-Lys(N-epsilon-Isopropyl)-Pro-AlaH2] was run?
**A.** The Kb was 0.0126 nM.

**Q.** `CC(C)C[C@H](NC(=O)[C@@H](CCCCNC(=O)c1cccnc1)NC(=O)[C@H](Cc1ccc(O)cc1)N(C)C(=O)[C@H](CO)NC(=O)[C@@H](Cc1cccnc1)NC(=O)[C@@H](Cc1ccc(Cl)cc1)NC(=O)[C@H](Cc1ccc2ccccc2c1)NC(=O)CNC(=O)[C@@H]1CCCO1)C(=O)N[C@@H](CCCCNC(C)C)C(=O)N1CCC[C@H]1C(=O)N[C@H](C)C(N)=O` [Example 81, (S)-2-Tetrahydrofuroyl-Gly-2Nal-D4ClPhe-D3Pal-Ser-NMeTyr-DLys(N-epsilon-Nicotinyl) -Leu-Lys(N-epsilon-Isopropyl)-Pro-DAlaNH2] was tested. Which Kb did it give?
**A.** The Kb was 0.891 nM.

**Q.** `CC(C)C[C@H](NC(=O)[C@@H](CCCCNC(=O)c1cccnc1)NC(=O)[C@H](Cc1ccc(O)cc1)N(C)C(=O)[C@@H](CO)NC(=O)[C@@H](Cc1cccnc1)NC(=O)[C@@H](Cc1ccc(Cl)cc1)NC(=O)[C@@H](Cc1ccc2ccccc2c1)NC(=O)CNC(=O)[C@@H]1CCCO1)C(=O)N[C@@H](CCCCNC(C)C)C(=O)N1CCC[C@H]1C(=O)N[C@H](C)C(N)=O` [Example 82, N (S)-2-Tetrahydrofuroyl-Gly-D2Nal-D4ClPhe-D3Pal-DSer-NMeTyr-DLys(N-epsilon-Nicotinyl) -Leu-Lys(N-epsilon-Isopropyl)-Pro-DAlaNH2] was tested. Which Kb did it give?
**A.** The Kb was 1.12 nM.

**Q.** How did the Kb turn out when `CC(C)C[C@H](NC(=O)[C@@H](CCCCNC(=O)c1cccnc1)NC(=O)[C@H](Cc1ccc(O)cc1)N(C)C(=O)[C@H](CO)NC(=O)[C@H](Cc1cccnc1)NC(=O)[C@@H](Cc1ccc(Cl)cc1)NC(=O)[C@@H](Cc1ccc2ccccc2c1)NC(=O)CNC(=O)[C@@H]1CCCO1)C(=O)N[C@@H](CCCCNC(C)C)C(=O)N1CCC[C@H]1C(=O)N[C@H](C)C(N)=O` [Example 83, N (S)-2-Tetrahydrofuroyl-Gly-D2Nal-D4ClPhe-3Pal-Ser-NMeTyr-DLys(N-epsilon-Nicotinyl) -Leu-Lys(N-epsilon-Isopropyl)-Pro-DAlaNH2] was run?
**A.** Its Kb is 0.0112 nM.

**Q.** `CC(C)C[C@H](NC(=O)[C@H](CCCCNC(=O)c1cccnc1)NC(=O)[C@H](Cc1ccc(O)cc1)N(C)C(=O)[C@H](CO)NC(=O)[C@@H](Cc1cccnc1)NC(=O)[C@@H](Cc1ccc(Cl)cc1)NC(=O)[C@@H](Cc1ccc2ccccc2c1)NC(=O)CNC(=O)[C@@H]1CCCO1)C(=O)N[C@@H](CCCCNC(C)C)C(=O)N1CCC[C@H]1C(=O)N[C@H](C)C(N)=O` [Example 85, N (S)-2-Tetrahydrofuroyl-Gly-D2Nal-D4ClPhe-D3Pal-Ser-NMeTyr-Lys(N-epsilon-Nicotinyl) -Leu-Lys(N-epsilon-Isopropyl)-Pro-DAlaNH2] was tested. Which Kb did it give?
**A.** The Kb was 0.0112 nM.

**Q.** `CC(C)C[C@H](NC(=O)[C@@H](CCCCNC(=O)c1cccnc1)NC(=O)[C@H](Cc1ccc(O)cc1)N(C)C(=O)[C@H](CO)NC(=O)[C@@H](Cc1cccnc1)NC(=O)[C@H](Cc1ccc(Cl)cc1)NC(=O)[C@@H](Cc1ccc2ccccc2c1)NC(=O)CNC(=O)[C@@H]1CCCO1)C(=O)N[C@@H](CCCCNC(C)C)C(=O)N1CCC[C@H]1C(=O)N[C@H](C)C(N)=O` [Example 86, N (S)-2-Tetrahydrofuroyl-Gly-D2Nal-4ClPhe-D3Pal-Ser-NMeTyr-DLys(N-epsilon-Nicotinyl) -Leu-Lys(N-epsilon-Isopropyl)-Pro-DAlaNH2] was tested. Which Kb did it give?
**A.** Its Kb is 0.141 nM.

**Q.** How did the Kb turn out when `CC(C)C[C@@H](NC(=O)[C@@H](CCCCNC(=O)c1cccnc1)NC(=O)[C@H](Cc1ccc(O)cc1)N(C)C(=O)[C@H](CO)NC(=O)[C@@H](Cc1cccnc1)NC(=O)[C@@H](Cc1ccc(Cl)cc1)NC(=O)[C@@H](Cc1ccc2ccccc2c1)NC(=O)CNC(=O)[C@@H]1CCCO1)C(=O)N[C@@H](CCCCNC(C)C)C(=O)N1CCC[C@H]1C(=O)N[C@H](C)C(N)=O` [Example 87, N (S)-2-Tetrahydrofuroyl-Gly-D2Nal-D4ClPhe-D3Pal-Ser-NMeTyr-DLys(N-epsilon-Nicotinyl) -DLeu-Lys(N-epsilon-Isopropyl)-Pro-DAlaNH2] was run?
**A.** The Kb was 0.269 nM.

**Q.** How did the Kb turn out when `CC(C)C[C@H](NC(=O)[C@@H](CCCCNC(=O)c1cccnc1)NC(=O)[C@H](Cc1ccc(O)cc1)N(C)C(=O)[C@H](CO)NC(=O)[C@@H](Cc1cccnc1)NC(=O)[C@@H](Cc1ccc(Cl)cc1)NC(=O)[C@@H](Cc1ccc2ccccc2c1)NC(=O)CNC(=O)[C@@H]1CCCO1)C(=O)N[C@@H](CCCCNC(C)C)C(=O)N1CCC[C@@H]1C(=O)N[C@H](C)C(N)=O` [Example 88, N (S)-2-Tetrahydrofuroyl-Gly-D2Nal-D4ClPhe-D3Pal-Ser-NMeTyr-DLys(N-epsilon-Nicotinyl) -Leu-Lys(N-epsilon-Isopropyl)-DPro-DAlaNH2] was run?
**A.** The Kb was 0.158 nM.

**Q.** How did the Kb turn out when `CC(C)C[C@H](NC(=O)[C@@H](CCCCNC(=O)c1cccnc1)NC(=O)[C@H](Cc1ccc(O)cc1)N(C)C(=O)[C@H](CO)NC(=O)[C@@H](Cc1cccnc1)NC(=O)[C@@H](Cc1ccc(Cl)cc1)NC(=O)[C@@H](Cc1ccc2ccccc2c1)NC(=O)CNC(=O)[C@@H]1CCCO1)C(=O)N[C@H](CCCCNC(C)C)C(=O)N1CCC[C@H]1C(=O)N[C@H](C)C(N)=O` [Example 89, N (S)-2-Tetrahydrofuroyl-Gly-D2Nal-D4ClPhe-D3Pal-Ser-NMeTyr-DLys(N-epsilon-Nicotinyl) -Leu-DLys(N-epsilon-Isopropyl)-Pro-DAlaNH2] was run?
**A.** Its Kb is 0.132 nM.

**Q.** For `CC(C)C[C@H](NC(=O)[C@@H](CCCCNC(=O)c1cccnc1)NC(=O)[C@@H](Cc1ccc(O)cc1)N(C)C(=O)[C@H](CO)NC(=O)[C@@H](Cc1cccnc1)NC(=O)[C@@H](Cc1ccc(Cl)cc1)NC(=O)[C@@H](Cc1ccc2ccccc2c1)NC(=O)CNC(=O)[C@@H]1CCCO1)C(=O)N[C@@H](CCCCNC(C)C)C(=O)N1CCC[C@H]1C(=O)N[C@H](C)C(N)=O` [Example 90, N (S)-2-Tetrahydrofuroyl-Gly-D2Nal-D4ClPhe-D3pal-Ser-DNMeTyr-DLys(N-epsilon-Nicotinyl) -Leu-Lys(N-epsilon-Isopropyl)-pro-DAlaNH2], which Kb is on record?
**A.** The Kb was 0.457 nM.

**Q.** Which Kb does the source give for `CC(C)C[C@H](NC(=O)[C@@H](CCCCNC(N)=O)NC(=O)[C@H](Cc1ccc(O)cc1)N(C)C(=O)[C@H](CO)NC(=O)[C@@H](Cc1cccnc1)NC(=O)[C@@H](Cc1ccc(Cl)cc1)NC(=O)[C@@H](Cc1ccc2ccccc2c1)NC(=O)CNC(=O)[C@@H]1CCCO1)C(=O)N[C@@H](CCCCNC(C)C)C(=O)N1CCC[C@H]1C(=O)N[C@H](C)C(N)=O` [Example 92, N (S)-2-Tetrahydrofuroyl-Gly-D2Nal-D4ClPhe-D3Pal-Ser-NMeTyr-DHcit-Leu-Lys(N- epsilon-Isopropyl) -Pro-DAlaNH2] (X1-G[d2Nal][dPhe(4-Cl)][d3Pal]S[NMeY][d(hCit)]L[Lys(iPr)]P[dA]-NH2) here?
**A.** The Kb was 0.0105 nM.

**Q.** For `CC(C)C[C@H](NC(=O)[C@@H](CCCCNC(N)=O)NC(=O)[C@H](Cc1ccc(O)cc1)NC(=O)[C@H](CO)NC(=O)[C@@H](Cc1cccnc1)NC(=O)[C@@H](Cc1ccc(Cl)cc1)NC(=O)[C@@H](Cc1ccc2ccccc2c1)NC(=O)CNC(=O)[C@@H]1CCCO1)C(=O)N[C@@H](CCCCNC(C)C)C(=O)N1CCC[C@H]1C(=O)N[C@H](C)C(N)=O` [Example 93, N (S)-2-Tetrahydrofuroyl-Gly-D2Nal-D4ClPhe-D3Pal-Ser-Tyr-DHcit-Leu-Lys(N-epsilon-Isopropyl)-Pro-DAlaNH2] (X1-G[d2Nal][dPhe(4-Cl)][d3Pal]SY[d(hCit)]L[Lys(iPr)]P[dA]-NH2), which Kb is on record?
**A.** Its Kb is 0.00589 nM.

**Q.** For `CC(C)C[C@H](NC(=O)[C@@H](CCCCNC(=O)c1cccnc1)NC(=O)[C@H](Cc1ccc(O)cc1)N(C)C(=O)[C@H](CO)NC(=O)[C@@H](Cc1cccnc1)NC(=O)[C@@H](Cc1ccccc1)NC(=O)[C@@H](Cc1ccc2ccccc2c1)NC(=O)CNC(=O)[C@@H]1CCCO1)C(=O)N[C@@H](CCCCNC(C)C)C(=O)N1CCC[C@H]1C(=O)N[C@H](C)C(N)=O` [Example 94, N (S)-2-Tetrahydrofuroyl-Gly-D2Nal-DPhe-D3Pal-Ser-NMeTyr-DLys(Nic)-Leu-Lys(N-epsilon-Isopropyl)-Pro-DAlaNH2] (X1-G[d2Nal][dF][d3Pal]S[NMeY][dK](Nicotinoyl)L[Lys(iPr)]P[dA]-NH2), which Kb is on record?
**A.** Its Kb is 0.00832 nM.
